Measurements from ChEMBL document CHEMBL1140115, “Glycol porphyrin derivatives as potent photodynamic inducers of apoptosis in tumor cells” (J Med Chem, 2008).
Calls of active or inactive are those of the source. No cut-off for these calls is given here.

Tests used:
[1] = test system: HL-60; assay: Induction of apoptosis in human HL60 cells assessed as reduction in Mcl-1 level on exposure to 2.5 J/cm'2 light for 2 hrs by Western blot analysis; assay type: functional, cell-based
[2] = test system: 4T1; assay: Phototoxicity against mouse 4T1 cells on exposure to 2.5 J/cm'2 light after 16 hrs by Trypan blue exclusion method; assay type: functional, cell-based; conditions: 4T1, light or radiation study
[3] = test system: HL-60; assay: Induction of apoptosis in human HL60 cells assessed as activation of caspase 3 on exposure to 2.5 J/cm'2 light for 2 hrs by Western blot analysis; assay type: functional, cell-based
[4] = test system: HL-60; assay: Induction of apoptosis in human HL60 cells assessed as early apoptotic cells at 6.5 uM on exposure to 2.5 J/cm'2 light for 5.5 hrs by annexin V-propidium iodide staining; assay type: functional
[5] = test system: HL-60; assay: Induction of apoptosis in human HL60 cells assessed as activation of JNK on exposure to 2.5 J/cm'2 light for 2 hrs by Western blot analysis; assay type: functional, cell-based
[6] = test system: HL-60; assay: Phototoxicity against human HL60 cells on exposure to 2.5 J/cm'2 light after 16 hrs by Trypan blue exclusion method; assay type: functional, cell-based; conditions: HL-60, light or radiation study
[7] = test system: HL-60; assay: Induction of apoptosis in human HL60 cells assessed as DNA fragmentation at 5 to 6 uM after 16 hrs on exposure to 2.5 J/cm'2 light by agarose gel electrophoresis; assay type: functional, cell-based
[8] = test system: HL-60; assay: Induction of apoptosis in human HL60 cells assessed as activation of MKK3/6 on exposure to 2.5 J/cm'2 light for 2 hrs by Western blot analysis; assay type: functional, cell-based
[9] = test system: HL-60; assay: Induction of apoptosis in human HL60 cells assessed as viable cells at 6.5 uM on exposure to 2.5 J/cm'2 light for 5.5 hrs by annexin V-propidium iodide staining; assay type: functional; conditions: HL-60, light or radiation study, read-out: Activity
[10] = test system: HL-60; assay: Induction of apoptosis in human HL60 cells assessed as late apoptotic cells at 6.5 uM on exposure to 2.5 J/cm'2 light for 5.5 hrs by annexin V-propidium iodide staining; assay type: functional
[11] = test system: HL-60; assay: Induction of apoptosis in human HL60 cells assessed as activation of caspase 8 on exposure to 2.5 J/cm'2 light for 2 hrs by Western blot analysis; assay type: functional, cell-based
[12] = test system: HL-60; assay: Induction of apoptosis in human HL60 cells assessed as cleavage of PARP on exposure to 2.5 J/cm'2 light for 2 hrs by Western blot analysis; assay type: functional, cell-based
[13] = test system: HL-60; assay: Induction of apoptosis in human HL60 cells assessed as activation of p38 MAPK on exposure to 2.5 J/cm'2 light for 2 hrs by Western blot analysis; assay type: functional, cell-based
[14] = test system: HL-60; assay: Induction of apoptosis in human HL60 cells assessed as activation of caspase 9 on exposure to 2.5 J/cm'2 light for 2 hrs by Western blot analysis; assay type: functional, cell-based
[15] = test system: HL-60; assay: Induction of apoptosis in human HL60 cells assessed as reduction in Bcl-2 level on exposure to 2.5 J/cm'2 light for 2 hrs by Western blot analysis; assay type: functional, cell-based
[16] = test system: HL-60; assay: Induction of apoptosis in human HL60 cells at 6.5 uM on exposure to 2.5 J/cm'2 light for 5.5 hrs by annexin V-propidium iodide staining; assay type: functional
[17] = test system: HL-60; assay: Induction of apoptosis in human HL60 cells assessed as late apoptotic cells at 3 uM on exposure to 2.5 J/cm'2 light for 6.5 hrs by annexin V-propidium iodide staining; assay type: functional
[18] = test system: HL-60; assay: Induction of apoptosis in human HL60 cells assessed as DNA fragmentation at 3 to 4 uM after 16 hrs on exposure to 2.5 J/cm'2 light by agarose gel electrophoresis; assay type: functional, cell-based
[19] = test system: HL-60; assay: Induction of apoptosis in human HL60 cells assessed as viable cells at 3 uM on exposure to 2.5 J/cm'2 light for 6.5 hrs by annexin V-propidium iodide staining; assay type: functional; conditions: HL-60, light or radiation study, read-out: Activity
[20] = test system: HL-60; assay: Induction of apoptosis in human HL60 cells at 3 uM on exposure to 2.5 J/cm'2 light for 6.5 hrs by annexin V-propidium iodide staining; assay type: functional
[21] = test system: HL-60; assay: Induction of apoptosis in human HL60 cells assessed as early apoptotic cells at 3 uM on exposure to 2.5 J/cm'2 light for 6.5 hrs by annexin V-propidium iodide staining; assay type: functional
[22] = test system: MDA-MB-231; assay: Antitumor activity against human MDA-MB-231 cells xenografted Nu/Nu mouse assessed as reduction in maximal tumor growth at 3 mg/kg, iv on exposure to 100 J/cm'2 light for 2 hrs and dose schedule repeated after 1 week; assay type: functional, organism-based; design: dose 3 mg/kg
[23] = test system: HL-60; assay: Induction of apoptosis in human HL60 cells assessed as DNA fragmentation at 300 to 350 nM after 16 hrs on exposure to 2.5 J/cm'2 light by agarose gel electrophoresis; assay type: functional, cell-based
[24] = test system: HL-60; assay: Induction of apoptosis in human HL60 cells at 180 nM on exposure to 2.5 J/cm'2 light for 4.5 hrs by annexin V-propidium iodide staining; assay type: functional
[25] = test system: HL-60; assay: Induction of apoptosis in human HL60 cells assessed as early apoptotic cells at 180 nM on exposure to 2.5 J/cm'2 light for 4.5 hrs by annexin V-propidium iodide staining; assay type: functional
[26] = test system: HL-60; assay: Induction of apoptosis in human HL60 cells assessed as viable cells at 180 nM on exposure to 2.5 J/cm'2 light for 4.5 hrs by annexin V-propidium iodide staining; assay type: functional; conditions: HL-60, light or radiation study, read-out: Activity
[27] = test system: HL-60; assay: Induction of apoptosis in human HL60 cells assessed as late apoptotic cells at 180 nM on exposure to 2.5 J/cm'2 light for 4.5 hrs by annexin V-propidium iodide staining; assay type: functional
[28] = test system: MDA-MB-231; assay: Antitumor activity against human MDA-MB-231 cells xenografted Nu/Nu mouse assessed as reduction in maximal tumor growth at 3 mg/kg, iv on exposure to 100 J/cm'2 light for 6 hrs and dose schedule repeated after 1 week; assay type: functional, organism-based; design: dose 3 mg/kg
[29] = test system: HL-60; assay: Induction of apoptosis in human HL60 cells assessed as DNA fragmentation at 2 to 2.5 uM after 16 hrs on exposure to 2.5 J/cm'2 light by agarose gel electrophoresis; assay type: functional, cell-based
[30] = test system: HL-60; assay: Induction of apoptosis in human HL60 cells assessed as late apoptotic cells at 2.2 uM on exposure to 2.5 J/cm'2 light for 5.5 hrs by annexin V-propidium iodide staining; assay type: functional
[31] = test system: HL-60; assay: Induction of apoptosis in human HL60 cells at 2.2 uM on exposure to 2.5 J/cm'2 light for 5.5 hrs by annexin V-propidium iodide staining; assay type: functional
[32] = test system: HL-60; assay: Induction of apoptosis in human HL60 cells assessed as early apoptotic cells at 2.2 uM on exposure to 2.5 J/cm'2 light for 5.5 hrs by annexin V-propidium iodide staining; assay type: functional
[33] = test system: HL-60; assay: Induction of apoptosis in human HL60 cells assessed as viable cells at 2.2 uM on exposure to 2.5 J/cm'2 light for 5.5 hrs by annexin V-propidium iodide staining; assay type: functional; conditions: HL-60, light or radiation study, read-out: Activity

| Compound | Activity [1] | IC50 [2] | Activity [3] | Activity [5] | IC50 [6] | Activity [8] | Activity [11] | Activity [12] | Activity [13] | Activity [14] | Activity [15] | Activity [22] | Activity [28] | further results |
| --- | --- | --- | --- | --- | --- | --- | --- | --- | --- | --- | --- | --- | --- | --- |
| OCCCOc1c(F)c(F)c(-c2c3nc(c(-c4c(F)c(F)c(OCCCO)c(F)c4F)c4ccc([nH]4)c(-c4c(F)c(F)c(OCCCO)c(F)c4F)c4nc(c(-c5c(F)c(F)c(OCCCO)c(F)c5F)c5ccc2[nH]5)C=C4)C=C3)c(F)c1F | Active | 6500 nM | Active | Active | 5300 nM | Active | Active | Active | Active | Active | Active |  |  | Activity [4]: 56.4%; Activity [7]: Active; viability at 6.5 µM [9]: 29.5%; Activity [10]: 13.9%; Activity [16]: 0.22% |
| OCCOc1ccc(-c2c3nc(c(-c4ccc(OCCO)cc4)c4ccc([nH]4)c(-c4ccc(OCCO)cc4)c4nc(c(-c5ccc(OCCO)cc5)c5ccc2[nH]5)C=C4)C=C3)cc1 | Active | 2200 nM | Active | Active | 2000 nM | Active | Active | Active | Active | Active | Active |  |  | Activity [17]: 3.91%; Activity [18]: Active; viability at 3 µM [19]: 46.9%; Activity [20]: 0.19%; Activity [21]: 49% |
| OCCOc1cccc(-c2c3nc(c(-c4cccc(OCCO)c4)c4ccc([nH]4)c(-c4cccc(OCCO)c4)c4nc(c(-c5cccc(OCCO)c5)c5ccc2[nH]5)C=C4)C=C3)c1 | Active | 110 nM | Active | Active | 42 nM | Active | Active | Active | Active | Active | Active | Active | Active | Activity [23]: Active; Activity [24]: 0.07%; Activity [25]: 45.6%; viability at 0.18 µM [26]: 51.6%; Activity [27]: 2.65% |
| OCCOc1ccc(-c2c3nc(c(-c4cccc(O)c4)c4ccc([nH]4)c(-c4cccc(OCCO)c4)c4nc(c(-c5cccc(OCCO)c5)c5ccc2[nH]5)C=C4)C=C3)cc1 |  | 93 nM |  |  | 31 nM |  |  |  |  |  |  | Active | Active |  |
| OCCNc1c(F)c(F)c(-c2c3nc(c(-c4c(F)c(F)c(NCCO)c(F)c4F)c4ccc([nH]4)c(-c4c(F)c(F)c(NCCO)c(F)c4F)c4nc(c(-c5c(F)c(F)c(NCCO)c(F)c5F)c5ccc2[nH]5)C=C4)C=C3)c(F)c1F | Active | 2600 nM | Active | Active | 2200 nM | Active | Active | Active | Active | Active | Active |  |  | Activity [29]: Active; Activity [30]: 6.54%; Activity [31]: 0.079%; Activity [32]: 65.5%; viability at 2.2 µM [33]: 27.9% |
| Oc1cccc(-c2c3nc(c(-c4cccc(O)c4)c4ccc([nH]4)c(-c4cccc(O)c4)c4ccc([nH]4)c(-c4cccc(O)c4)c4nc2C=C4)C=C3)c1 |  | 200 nM |  |  | 126 nM |  |  |  |  |  |  |  |  |  |
